The test system of data set [1] is K562 human leukemia cell line. The note with it: background, antitumour activity; cited from earlier work.
The subject of data set [2] is MDA-468 advanced breast cancer cell line. The experiment in a line: MDA-468 tumour cell line cytotoxicity assay. Type of data set: cell-based, human. Particulars: for IC50: Homo sapiens, without TCDD; for Tumour Selectivity Differential Factor: IC50 MCF-10A divided by IC50 MDA-468 (Table 2). As to the method: (§1) Cells were maintained in RPMI 1640 with Glutamax 1 (Life Technologies) with 10% (v/v) heat inactivated foetal calf serum (Hybrimax. Sigma), at 37° C., 5% CO2/95% air with 100% humidity and passaged using trypsin/EDTA. 1×10^3 cells were plated out in 100 μl medium per well of 96-well flat-bottomed plates (Fisher). […] The medium was then carefully aspirated and 100 μl fresh medium added. […] 50 μl MTT (Thiazol blue, Sigma) at 2 mg/ml in Dulbecco's phosphate buffered saline-A, was then added to each well for 3 hours. All medium was aspirated, then the formazan product generated by viable cells was solubilized with 150 μl DMSO. Plates were vortexed and the absorbance at 540 nm determined using a plate reader. […] All determinations were carried out in at least triplicate.
(§2) This cell culture based assay is performed using the two cell lines MDA-468 and MCF-10A. The MDA468 cell line is an advanced breast cancer cell line, whilst the MCF-10A cell line is a normal breast cell line.
(§3) This assay was performed using the two cell lines MDA-468 and MCF-10A according to the procedure described above for the MCF-7 assay, but without the addition of TCDD.
(§4) The tumour selectivity differential factor (TSDF) is calculated by dividing the IC50 obtained from the MCF-10A data by the IC50 obtained from the MDA-468 data.

The test system of data set [3] is MCF-10A normal breast cell line. Description: MCF-10A normal cell line cytotoxicity assay. Type of data set: cell-based. Particulars: Homo sapiens, without TCDD. On the procedure:
as §1, §2, §3, §4

The next data set has as its system MCF-7 cells. The experiment in a line: MCF-7 cell line (non-induced) cytotoxicity assay, MTT. Type of data set: cell-based. The note with it: Homo sapiens, MCF7; non-induced MCF-7 cells, 96 hours, MTT; read-out: MCF-7 Cells IC50. The source says: (§5) CYP1A1 and CYP1B1 enzyme activity is induced by TCDD (tetrachlorodibenzodioxin (Dioxin)) in breast tumour MCF-7 cells (see, e.g., Sutter et al., 1994). CYP1B1 is expressed in a variety of human tumours, and can be inducible by TCDD in numerous cell types including breast, liver, lung, and kidney (see, e.g., Murray et al., 1997). CYP1B1 is known to catalyse estradiol 4-hydroxylation metabolism. In untreated culture, the constitutive rate of estradiol E2 metabolism in MCF-7 cells is minimal. However, treatment with TCDD causes a marked increase in the rate of E2 metabolism (see, e.g., Spink et al., 1994). […] Therefore the cytotoxicity of compounds in non-induced MCF-7 cells correlates to the cytotoxicity of compounds against normal cells, whilst the cytotoxicity of compounds against TCDD-induced MCF-7 cells correlates to the cytotoxicity of compounds against real tumours that express CYP1B1.
(§6) The cytotoxicity of compounds in non-induced MCF-7 cells correlates to the cytotoxicity of compounds against normal cells, whilst the cytotoxicity of compounds against TCDD-induced MCF-7 cells correlates to the cytotoxicity of compounds against real tumours that express CYP1B1.
(§7) Cells were maintained in RPMI 1640 with Glutamax 1 (Life Technologies) with 10% (v/v) heat inactivated foetal calf serum (Hybrimax. Sigma), at 37° C., 5% CO2/95% air with 100% humidity and passaged using trypsin/EDTA. 1×10^3 cells were plated out in 100 μl medium per well of 96-well flat-bottomed plates (Fisher). After 4 hours to allow adherance, 100 μl of medium containing TCDD (British Greyhound Chromatography; 10 μM stock in DMSO (dimethylsulfoxide)) or medium with 0.2% (v/v) DMSO as control was added to each well to give a final concentration of 10 nM TCDD, 0.1% (v/v) DMSO, for 24 hours to allow maximal CYP expression. The medium was then carefully aspirated and 100 μl fresh medium added. Within 30 minutes test compound was added in quadruplicate in 100 μl medium (with or without inhibitors) at double the final concentration from 100 mM stock in DMSO to give a final concentration of not more than 0.1% (v/v) DMSO, or DMSO solvent alone at 0.1% (v/v) as control. The cells were then allowed to grow on for 96 hours to give 80–90% confluence in the control wells. 50 μl MTT (Thiazol blue, Sigma) at 2 mg/ml in Dulbecco's phosphate buffered saline-A, was then added to each well for 3 hours. All medium was aspirated, then the formazan product generated by viable cells was solubilized with 150 μl DMSO. Plates were vortexed and the absorbance at 540 nm determined using a plate reader. Results were expressed as the percentage of 100% (control) proliferation and the IC50 calculated using the line of best fit for a sigmoidal dose response curve with variable slope using Graphpad Prizm software. All determinations were carried out in at least triplicate.

The next data set deals with TCDD-induced MCF-7 cells. Description: TCDD-induced MCF-7 cell line cytotoxicity assay, MTT. Type of data set: cell-based, human. Particulars: for IC50: 96 hours, MTT.
Source text: as §5, §6
as §7, with “triplicate. […]” for “triplicate.”

On to `CC(=O)/C=C/c1ccc(O)cc1` [(E)-1-(4′-hydroxyphenyl)but-1-en-3-one], for which the IC50 in data set [1] is 60000 nM.

Turning to `CN(Cc1cnc2nc(N)nc(N)c2n1)c1ccc(C(=O)N[C@@H](CCC(=O)O)C(=O)O)cc1` [Methotrexate, methotrexate], in data set [2], the IC50 amounted to 40 nM and the “Tumour Selectivity Differential Factor” value came out at 1.5. Besides, in data set [3], the concentration for half-maximal inhibition (IC50) turned out to be 60 nM.

On to `CCCOc1ccc(/C=C/C(=O)c2cc(OC)cc(OC)c2)cc1` [DMU-175, (E)-1-(4-propoxyphenyl)-3-(3,5-dimethoxyphenyl)prop-1-en-3-one], for which the IC50 with MCF-7 cells was found to be 15000 nM; with TCDD-induced MCF-7 cells (Homo sapiens, MCF7, MCF-7 cells induced with 10 nM TCDD for 24 hours), 540 nM; in the data set on TCDD-induced MCF-7 cells (MCF-7 cells induced with 10 nM TCDD for 24 hours), 500 nM; in data set [2], 1400 nM; in data set [3], 16000 nM. Also, the “increase in the cytotoxic activity by the induction of CYP1B1” value with TCDD-induced MCF-7 cells (FIG. 1, un-induced versus TCDD-induced MCF-7 cells) came out at 28 fold. In addition, the “Tumour Selectivity Differential Factor” value in the data set on TCDD-induced MCF-7 cells (MCF-7 IC50 versus TCDD-induced MCF-7 IC50 (Table 1)) was found to be 30; in data set [2], 11. Besides, in the data set with TCDD-induced MCF-7 cells (TCDD-induced MCF-7 versus MCF-7), the “more toxic to “tumour” cells than to “normal” cells” value amounted to 30 fold. Also, the “more toxic to cancer cells than to normal cells (tumour selectivity)” value in data set [2] (MDA-468 versus MCF-10A) turned out to be 11 fold.

Regarding `COc1cccc2c1C(=O)c1c(O)c3c(c(O)c1C2=O)C[C@@](O)(C(=O)CO)C[C@@H]3O[C@H]1C[C@H](N)[C@H](O)[C@H](C)O1` [Doxorubicin, doxorubicin], in data set [2], the IC50 was determined as 3 nM and the “Tumour Selectivity Differential Factor” value came out at 0.1. For the same compound, in data set [2] (MCF-10A versus MDA-468), the “more toxic to normal cells than to cancer cells” value was 10 fold. The compound further showed an IC50 in data set [3] of 0.3 nM.

The term IC50 denotes the concentration that gives 50% inhibition.

The values above are taken from US7112698B2, “4-(c2-6alkoxy)-substituted chalcones as therapeutic agents” (Spear Therapeutics Limited, priority 2001, dated 2006).
